From patent US20200171030A1, “DUAL INHIBITORS OF ALK5 AND P38A MAP KINASE” (INTEGRAL BIOSCIENCES PRIVATE LIMITED, priority 2018, published 2020)
pIC50: −log10 of the molar value. Structures can show the parent of a compound that is named as a salt. Where two headings read alike, the source gives them in different places.

Tests used:
TGFBR1 (ALK5) = molecular target: T1, TGFBR1 (ALK5) (Homo sapiens, UniProt P36897); test: ALK5 kinase assay (LanthaScreen Terbium labeled TR-FRET); format: biochemical; conditions: for inhibition at 0.1 µM: 100 nM concentration of compound, read-out: Enzyme Activity TGFBR1 (ALK5) % Inhibition at 100 nM
T1 sequence (P36897 34-503): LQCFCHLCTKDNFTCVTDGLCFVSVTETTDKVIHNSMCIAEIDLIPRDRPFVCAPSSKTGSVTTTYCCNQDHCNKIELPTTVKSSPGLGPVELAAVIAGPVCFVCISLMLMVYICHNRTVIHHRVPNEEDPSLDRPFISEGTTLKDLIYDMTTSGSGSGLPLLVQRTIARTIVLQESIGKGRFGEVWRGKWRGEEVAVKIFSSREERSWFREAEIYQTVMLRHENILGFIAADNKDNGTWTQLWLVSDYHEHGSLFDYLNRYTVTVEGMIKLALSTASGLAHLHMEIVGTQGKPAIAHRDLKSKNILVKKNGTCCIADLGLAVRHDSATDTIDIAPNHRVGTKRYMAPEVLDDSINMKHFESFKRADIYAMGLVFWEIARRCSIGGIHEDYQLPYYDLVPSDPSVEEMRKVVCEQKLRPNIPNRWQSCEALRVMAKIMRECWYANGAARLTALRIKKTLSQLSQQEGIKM
Description: ALK5 Kinase Assay for IC50 Determination:
IC50 values of compounds against TGFβ kinase was determined by LanthaScreen™ Terbium Labeled TR-FRET assay. Kinase assays were performed in IX kinase buffer (# PV6135, Invitrogen, Life Technologies Grand Island, N.Y.) where total reaction volume was 10 μL in low-volume 384-well plates (#4511,Corning). Serially diluted compounds (3-fold) were incubated with TGFβ kinase (6 nM) for 10 min, following which a mixture of ATP (10 μM) (# A1852, Sigma, St-Louis, Mo.) and fluorescent-PolyGT substrate (200 nM) (# PV3610, Invitrogen, Life Technologies Grand Island, N.Y.) was added and incubated in dark at room temperature for 1 h. After 1 h, 10 μL stop solution containing Terbium labeled antibody (4 nM) (# PV3529, Invitrogen, Life Technologies Grand Island, N.Y.) and EDTA (# E5134, Sigma, St-Louis, Mo.) (20 mM) in TR-FRET dilution buffer (# PV3574, Invitrogen, Life Technologies Grand Island, N.Y.) was added. Readings were taken in a Synergy Neo Plate reader (BioTek, Winooski) at single excitation of 340 nm and Dual emission at 495 nm and 520 nm respectively.
The % activity of test samples was calculated as (Sample−Min)×100/(Max−Min). [Max: DMSO control, complete reaction with enzyme with DMSO and Min: No enzyme with DMSO]. Percent inhibition (100-% activity) was fitted to the “four-parameter logistic model” in XLfit for determination of IC50 values.

MAPK14/p38α kinase = molecular target: T2, MAPK14/p38α kinase (Homo sapiens, UniProt Q16539); test: MAPK14/p38α kinase assay (LanthaScreen TR-FRET); format: biochemical; conditions: for inhibition at 0.1 µM: 100 nM concentration of compound; for pIC50: Table 3, read-out: IC50 (P38 alpha)
T2 construct: purchased ThermoFisher PV3304
T2 sequence (Q16539 whole entry): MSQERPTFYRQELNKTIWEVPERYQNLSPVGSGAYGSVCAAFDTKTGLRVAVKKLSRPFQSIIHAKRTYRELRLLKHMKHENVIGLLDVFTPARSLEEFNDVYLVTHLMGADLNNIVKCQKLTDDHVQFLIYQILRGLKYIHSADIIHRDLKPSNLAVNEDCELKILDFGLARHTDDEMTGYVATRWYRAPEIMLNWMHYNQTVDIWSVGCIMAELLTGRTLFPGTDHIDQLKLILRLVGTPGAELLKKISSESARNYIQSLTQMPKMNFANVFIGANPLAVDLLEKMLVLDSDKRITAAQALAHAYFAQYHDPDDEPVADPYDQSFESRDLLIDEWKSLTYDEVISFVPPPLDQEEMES
Description: MAPK14/p38α Kinase Assay for IC50 Determination:
IC50 values of compounds against MAPK14/P38α kinase were determined by Lanthascreen based TR-FRET assay. Kinase reactions were performed in a 10 μL volume in low-volume 384-well plates. The concentration of substrate was maintained at 400 nM in the assay, and the kinase reaction buffer (1×; Cat # PV3189, ThermoFisher) consisted of 50 mM HEPES pH 7.5, 0.01% BRIJ-35, 10 mM MgCl2, and 1 mM EGTA. Serially diluted compounds (3-fold) in DMSO (0.5% in final reaction) were incubated with cocktail of MAPK14/p38α kinase (20 ng/ml; Cat # PV3304, ThermoFisher), Substrate GFP-ATF2 (19-96), (0.4 μM; Cat # PV4445, ThermoFisher), ATP (90 μM; Cat # PV3227, ThermoFisher) and buffer. Kinase reactions were allowed to proceed for 1 hour at room temperature before EDTA (10 mM; Cat # P2825, ThermoFisher) and LanthaScreen™ Tb-antipATF2 (pThr71) Antibody (2 nM; Cat # PV4451, ThermoFisher) in TR-FRET dilution buffer (IX; Cat # PV3574, ThermoFisher) were added. The plate was allowed to incubate at room temperature for 30 minutes before being read on a BMG Pherastar plate reader using the LanthaScreen™ filter block for LanthaScreen™ TR-FRET.
The resulting TR-FRET emission ratio was plotted against the concentration of inhibitor, and the data was fit to a sigmoidal dose-response curve with a variable slope. The IC50 for the inhibitor was calculated from the curve.

Panc-1 = test: Cell viability assay (resazurin, 96 hr) in Panc-1; format: cell-based; conditions: Homo sapiens; Panc-1 pancreatic cell line, 96 hr exposure; read-out: Panc-1_Cell Viability_IC50
Description: (§1) Cell Viability Assay in MIA PaCa-2 and Panc-1
(§2) MIA PaCa-2 (ATCC® CRL-1420™) and Panc-1 (CRL-1469™), both pancreatic cell lines were seeded in their respective medium (DMEM, Cat #10569044 with 10% FBS, Cat #16000044; Gibco for Panc-1 and an additional 2.5% Horse Serum, Cat #16050122; Gibco for MIA PaCa-2) at a cell count of 3000 cells per 100 μl per well in a 96 well edge plate (167425; ThermoFisher). Cells were allowed to grow at 37° C. for 24 hr in 5% CO2 (culture conditions) in a Nuaire incubator (humidified). Serially diluted compounds (100 μl) were added to the culture plate 24 hr later and the cultures (MIA PaCa-2 and Panc-1) were further incubated in culture conditions for 96 hr. Experiment was terminated at the completion of 96 hr exposure to the drug by replacing the medium with 100 μl of 1 mM of resazurin (R7017; Sigma) prepared in culture medium and the plates were further incubated in culture conditions for 4 hr. Fluorescence was then measured using a multimodal plate reader (Biotek Synergy Neo) at an excitation wavelength of 535 nm and emission wavelength of 590 nm to obtain relative fluorescence units. Data analysis was done by subtracting the background fluorescence (only medium blank) value from each reading and then normalizing with the vehicle control (DMSO treated cells) to obtain percent survival/proliferation. Percent survival at different doses was used to calculate IC50 by fitting the curve to the “four-parameter variable slope logistic model” using Prism Graph Pad.

MIA PaCa-2 = test: Cell viability assay (resazurin, 96 hr) in MIA PaCa-2; format: cell-based; conditions: Homo sapiens; MIA PaCa-2 pancreatic cell line, 96 hr exposure; read-out: MiaPaCa-2_Cell Viability_IC50
Description: as §1, §2

[1] = read-out: Enzyme Activity MAPK14 (p38 alpha) % Inhibition at 100 nM
[2] = Table 4, read-out: Enzyme Activity MAPK14 (p38alpha) % Inh at 100 nM

Row | Compound | inhibition at 0.1 µM (TGFBR1 (ALK5)) [%] | inhibition at 0.1 µM (MAPK14/p38α kinase; [1]) [%] | pIC50 (Panc-1) | pIC50 (MIA PaCa-2) | pIC50 (TGFBR1 (ALK5); Table 3, read-out: IC50 (ALK5)) | pIC50 (MAPK14/p38α kinase) | pIC50 (TGFBR1 (ALK5); Table 4, read-out: ALK5 IC50) | inhibition at 0.1 µM (MAPK14/p38α kinase; [2]) [%]
1 | CC(C)c1cnc(-c2ccc(F)cc2)nc1Nc1ccnc2[nH]cc(N3CCCCC3)c12 [Compound No. 3, N-(2-(4-fluorophenyl)-5-isopropylpyrimidin-4-yl)-3-(piperidin-1-yl)-1H-pyrrolo [2,3-b] pyridin-4-amine hydrochloride] | 72 | 42 | < 4.57 | < 4.52 |  |  |  | 
2 | CNC(=O)C(=O)c1c[nH]c2nccc(Nc3nc(-c4cc(Cl)ccc4F)ncc3C(C)C)c12 [Compound No. 18, 2-(4-((2-(5-chloro-2-fluorophenyl)-5-isopropylpyrimidin-4-yl)amino)-1H-pyrrolo[2,3-b]pyridin-3-yl)-N-methyl-2-oxoacetamide hydrochloride] |  |  | < 4.52 | < 4.52 | < 5.30 | 6.46 |  | 
3 | CC(C)c1cnc(-c2ccc(F)cc2)cc1Nc1ccnc2[nH]cc(C(=O)C(N)=O)c12 [Compound No. 19, 2-(4-((2-(4-fluorophenyl)-5-isopropylpyridin-4-yl)amino)-1H-pyrrolo[2,3-b]pyridin-3-yl)-2-oxoacetamide hydrochloride] |  |  | 4.63 | 4.81 | 6.56 | 5.75 |  | 
4 | CC(C)c1cnc(-c2ccc(F)cc2)nc1Nc1ccnc2[nH]cc(N3CCNC(=O)C3)c12 [Compound No. 10, 4-(4-(2-(4-fluorophenyl)-5-isopropylpyrimidin-4-ylamino)-1H-pyrrolo [2,3-b]pyridin-3-yl) piperazin-2-one formate] |  |  | 5.56 | 5.46 |  |  | 6.52 | 28
5 | CC(C)c1cnc(-c2ccc(F)cc2)nc1Nc1ccnc2[nH]cc(C(=O)C(N)=O)c12 [Compound No. 17, 2-(4-((2-(4-fluorophenyl)-5-isopropylpyrimidin-4-yl)amino)-1H-pyrrolo[2,3-b]pyridin-3-yl)-2-oxoacetamide hydrochloride] |  |  | < 4.52 | 6.12 | < 5.30 | 6.51 |  | 
6 | CC(C)c1cnc(-c2ccc(F)cc2)nc1Nc1ccnc2[nH]cc(N3CCNCC3C)c12 (stereo not shown) [Compound No. 4, N-(2-(4-fluorophenyl)-5-isopropylpyrimidin-4-yl)-3-(2-methylpiperazin-1-yl)-1H-pyrrolo[2,3-b]pyridin-4-amine hydrochloride] | 94 | 72 | 5.73 | 5.81 |  |  |  | 
7 | CC(C)c1cnc(-c2ccc(F)cc2)nc1Nc1ccnc2[nH]cc(N3CCN(C)CC3)c12 [Compound No. 2, N-(2-(4-fluorophenyl)-5-isopropylpyrimidin-4-yl)-3-(4-methylpiperazin-1-yl)-1H-pyrrolo [2,3-b] pyridin-4-amine hydrochloride] | 84 | 19 | 5.66 | 5.11 |  |  |  | 
8 | CC(C)c1cnc(-c2ccc(F)cc2)nc1Nc1ccnc2[nH]cc(N3CCNCC3)c12 [Compound No. 1, N-(2-(4-fluorophenyl)-5-isopropylpyrimidin-4-yl)-3-(piperazin-1-yl)-1H-pyrrolo [2,3-b] pyridin-4-amine hydrochloride] | 99 | 61 | 5.64 | 5.79 |  |  |  | 
9 | CC(C)c1cnc(-c2ccc(F)cc2)nc1Nc1ccnc2[nH]cc(N3CCNC[C@@H]3C)c12 [Compound No. 7, N-(2-(4-fluorophenyl)-5-isopropylpyrimidin-4-yl)-3-(2-methylpiperazin-1-yl)-1H-pyrrolo [2,3-b] pyridin-4-amine hydrochloride] |  |  | 5.57 | 5.61 | 6.81 | 7.38 |  | 
10 | CC(C)c1cnc(-c2ccc(F)cc2)nc1Nc1ccnc2[nH]cc(N3CCOCC3)c12 [Compound No. 5, N-(2-(4-fluorophenyl)-5-isopropylpyrimidin-4-yl)-3-morpholino-1H-pyrrolo [2,3-b] pyridin-4-amine hydrochloride] | 88 | 7 | < 4.52 | < 4.52 |  |  |  | 
11 | CC(C)c1cnc(-c2ccc(F)cc2)nc1Nc1ccnc2[nH]cc(C(=O)C(=O)N3CCNCC3)c12 [Compound No. 23, 1-(4-(2-(4-fluorophenyl)-5-isopropylpyrimidin-4-ylamino)-1H-pyrrolo [2,3-b]pyridin-3-yl)-2-(piperazin-1-yl) ethane-1,2-dione hydrochloride] |  |  | 5.23 | 5.95 | 6.17 | 5.89 |  | 
12 | CC(C)c1cnc(-c2ccc(F)cc2)nc1Nc1ccnc2[nH]cc(-n3cncn3)c12 [Compound No. 6, N-(2-(4-fluorophenyl)-5-isopropylpyrimidin-4-yl)-3-(1H-1,2,4-triazol-1-yl)-1H-pyrrolo [2,3-b] pyridin-4-amine hydrochloride] | 97 | 0 | 6.19 | 6.18 |  |  |  | 
13 | CC(C)c1cnc(-c2ccc(F)cc2)nc1Nc1ccnc2[nH]cc(N3CCC(C(N)=O)CC3)c12 [Compound No. 12, 1-(4-((2-(4-fluorophenyl)-5-isopropylpyrimidin-4-yl)amino)-1H-pyrrolo[2,3-b]pyridin-3-yl)piperidine-4-carboxamide formic acid] |  |  | 5.59 | 5.75 |  |  | 5.93 | 37
